Experimental data as given in ChEMBL document CHEMBL3885881, “DrugMatrix”.

Organism: Rattus norvegicus
Experiment: DrugMatrix - Regimen: Daily Repeat
Type: toxicity, organism-based, Sprague-Dawley
Parameters: regimen Daily Repeat, gender Male, age 6-8 weeks
Conditions: in vivo, po, route oral GAVAGE, vehicle 100 % WATER; for ABSOLUTE BASOPHIL / ABSOLUTE EOSINOPHIL / ABSOLUTE LYMPHOCYTE / ABSOLUTE MONOCYTE / ABSOLUTE SEGMENTED NEUTROPHIL / BASOPHIL / EOSINOPHIL / ERYTHROCYTE COUNT / HEMATOCRIT / HEMOGLOBIN / LEUKOCYTE COUNT / LYMPHOCYTE / MEAN CORPUSCULAR HEMOGLOBIN / MEAN CORPUSCULAR HEMOGLOBIN CONCENTRATION / MONOCYTE / NEUTROPHIL / NUCLEATED RED BLOOD CELLS / PLATELET COUNT: tissue Blood; for ALANINE AMINOTRANSFERASE / ALBUMIN / ALKALINE PHOSPHATASE / ASPARTATE AMINOTRANSFERASE / BLOOD UREA NITROGEN / CARBON DIOXIDE / CHLORIDE / CHOLESTEROL / CREATINE PHOSPHOKINASE / CREATININE / GLUCOSE / LACTATE DEHYDROGENASE / LIPASE / PHOSPHORUS / POTASSIUM / SODIUM / TOTAL BILIRUBIN / TOTAL PROTEIN / URIC ACID: tissue Plasma
[1] = 0 mg/kg, 72 h, dose level Control, time 3 day
[2] = 0 mg/kg, 120 h, dose level Control, time 5 day
[3] = 50 mg/kg, 72 h, dose level Low, time 3 day

## C[C@H](CS)C(=O)N1CCC[C@H]1C(=O)O [CAPTOPRIL]
[1]
  ABSOLUTE BASOPHIL: 0 CELLS/uL
  ABSOLUTE EOSINOPHIL: 0 CELLS/uL
  ABSOLUTE LYMPHOCYTE: 10386.33 CELLS/uL
  ABSOLUTE MONOCYTE: 88.5 CELLS/uL
  ABSOLUTE SEGMENTED NEUTROPHIL: 1008.5 CELLS/uL
  BASOPHIL: 0%
  EOSINOPHIL: 0%
  ERYTHROCYTE COUNT: 5.16 x10E6/uL
  HEMATOCRIT: 32.43%
  HEMOGLOBIN: 12.98 G/DL
  LEUKOCYTE COUNT: 11.48 x10E3/uL
  LYMPHOCYTE: 92.33%
  MEAN CORPUSCULAR HEMOGLOBIN: 25.23 pg
  MEAN CORPUSCULAR HEMOGLOBIN CONCENTRATION: 40.08 G/DL
  MONOCYTE: 0.67%
  NEUTROPHIL: 7%
  NUCLEATED RED BLOOD CELLS: 0 /100WBC
  PLATELET COUNT: 1016.67 x10E3/uL
  ALANINE AMINOTRANSFERASE: 62.17 u/L
  ALBUMIN: 3.95 G/DL
  ALKALINE PHOSPHATASE: 363.5 u/L
  ASPARTATE AMINOTRANSFERASE: 118 u/L
  BLOOD UREA NITROGEN: 14.5 mg/dL
  CARBON DIOXIDE: 22.83 mmol/L
  CHLORIDE: 100.67 MEQ/L
  CHOLESTEROL: 66 mg/dL
  CREATINE PHOSPHOKINASE: 1308.83 u/L
  CREATININE: 0.22 mg/dL
  GLUCOSE: 187.5 mg/dL
  LACTATE DEHYDROGENASE: 380.17 u/L
  LIPASE: 16.17 u/L
  PHOSPHORUS: 14.27 mg/dL
  POTASSIUM: 6.8 MEQ/L
  SODIUM: 142.53 MEQ/L
  TOTAL BILIRUBIN: 0.2 mg/dL
  TOTAL PROTEIN: 5.68 G/DL
  URIC ACID: 2.87 mg/dL
[2]
  ABSOLUTE BASOPHIL: 0 CELLS/uL
  ABSOLUTE EOSINOPHIL: 80 CELLS/uL
  ABSOLUTE LYMPHOCYTE: 13301.33 CELLS/uL
  ABSOLUTE MONOCYTE: 180.83 CELLS/uL
  ABSOLUTE SEGMENTED NEUTROPHIL: 1187.83 CELLS/uL
  BASOPHIL: 0%
  EOSINOPHIL: 0.5%
  ERYTHROCYTE COUNT: 5.54 x10E6/uL
  HEMATOCRIT: 35.65%
  HEMOGLOBIN: 14.22 G/DL
  LEUKOCYTE COUNT: 14.75 x10E3/uL
  LYMPHOCYTE: 90.67%
  MEAN CORPUSCULAR HEMOGLOBIN: 25.65 pg
  MEAN CORPUSCULAR HEMOGLOBIN CONCENTRATION: 39.88 G/DL
  MONOCYTE: 1%
  NEUTROPHIL: 7.83%
  NUCLEATED RED BLOOD CELLS: 0.17 /100WBC
  PLATELET COUNT: 1285.33 x10E3/uL
  ALANINE AMINOTRANSFERASE: 51.67 u/L
  ALBUMIN: 4.08 G/DL
  ALKALINE PHOSPHATASE: 391.5 u/L
  ASPARTATE AMINOTRANSFERASE: 99.5 u/L
  BLOOD UREA NITROGEN: 15.5 mg/dL
  CARBON DIOXIDE: 28.33 mmol/L
  CHLORIDE: 101.83 MEQ/L
  CHOLESTEROL: 67.83 mg/dL
  CREATINE PHOSPHOKINASE: 771.33 u/L
  CREATININE: 0.23 mg/dL
  GLUCOSE: 156.5 mg/dL
  LACTATE DEHYDROGENASE: 544.33 u/L
  LIPASE: 10.17 u/L
  PHOSPHORUS: 12.03 mg/dL
  POTASSIUM: 6.81 MEQ/L
  SODIUM: 144.13 MEQ/L
  TOTAL BILIRUBIN: 0.22 mg/dL
  TOTAL PROTEIN: 6 G/DL
  URIC ACID: 2.18 mg/dL
[3]
  ABSOLUTE BASOPHIL: 0 CELLS/uL
  ABSOLUTE EOSINOPHIL: 0 CELLS/uL
  ABSOLUTE LYMPHOCYTE: 12527.33 CELLS/uL
  ABSOLUTE MONOCYTE: 193.67 CELLS/uL
  ABSOLUTE SEGMENTED NEUTROPHIL: 645.67 CELLS/uL
  BASOPHIL: 0%
  EOSINOPHIL: 0%
  ERYTHROCYTE COUNT: 5.11 x10E6/uL
  HEMATOCRIT: 32.47%
  HEMOGLOBIN: 12.77 G/DL
  LEUKOCYTE COUNT: 13.37 x10E3/uL
  LYMPHOCYTE: 93.67%
  MEAN CORPUSCULAR HEMOGLOBIN: 25 pg
  MEAN CORPUSCULAR HEMOGLOBIN CONCENTRATION: 39.33 G/DL
  MONOCYTE: 1.33%
  NEUTROPHIL: 5%
  NUCLEATED RED BLOOD CELLS: 0 /100WBC
  PLATELET COUNT: 1185.33 x10E3/uL
  ALANINE AMINOTRANSFERASE: 55.33 u/L
  ALBUMIN: 4.23 G/DL
  ALKALINE PHOSPHATASE: 396.33 u/L
  ASPARTATE AMINOTRANSFERASE: 89.33 u/L
  BLOOD UREA NITROGEN: 15.33 mg/dL
  CARBON DIOXIDE: 24.67 mmol/L
  CHLORIDE: 99.67 MEQ/L
  CHOLESTEROL: 77.67 mg/dL
  CREATINE PHOSPHOKINASE: 344.67 u/L
  CREATININE: 0.22 mg/dL
  GLUCOSE: 154.67 mg/dL
  LACTATE DEHYDROGENASE: 230.67 u/L
  LIPASE: 11.67 u/L
  PHOSPHORUS: 12.57 mg/dL
  POTASSIUM: 6.98 MEQ/L
  SODIUM: 141.83 MEQ/L
  TOTAL BILIRUBIN: 0.2 mg/dL
  TOTAL PROTEIN: 5.87 G/DL
